{"source": "patent US9149513B2", "about": "“Method and pharmacological composition for the diagnosis and treatment of male sub-fertility” (PERINESS LTD., priority 2006, dated 2015)", "test_system": "intracellular sperm cell DNase", "experiment": "Inhibition of intracellular sperm cell DNase by citrate", "format": "cell-based", "details": "10 mM citrate, up to 8 hours, activity measured every hour", "procedure": "Sperm cells were subjected to three cycles of freezing and thawing and were then centrifuged for 10 min (27,000 g, 4° C.). […] 0.3 ml of the supernatant was added to 0.6 ml of DNase activity buffer and the mixture was measured in a spectrophotometer at 260 nm against a reference that contained only buffer and medium. Calibration curves were made using a commercial bovine DNase I. Sperm cell internal DNase was measured in Kunitz units. One Kunitz unit is defined as the amount of DNase that produces an increase of 1 O.D. per minute at 260 nm in a 1 cm pathlength at pH 5 at 25° C., in a reaction buffer that contains 5 mM MgSO4x7H2O, 0.1 M NaAcetate pH 5 and 4 mg % Calf thymus DNA. Plasma DNase was measured in Bartoov units. One Bartoov unit (BU) is defined as the amount of enzyme that produces a ΔA260 of 0.001 per min in 1 cm pathlength at pH 7.5 at 25° C., in a reaction buffer that contains 0.1M Tris, 10 mM CaCl2, 10 mM MnCl2 and 0.05 mg/ml calf thymus DNA.\nIn order to examine whether the DNase inhibitor citrate can inhibit intracellular sperm cell DNase, sperm cells were incubated with or without 10 mM citrate for up to 8 hours. The intracellular DNase activity was measured every hour and the sum of the DNase activity was calculated.", "data": [{"smiles": "O=C(O)CC(O)(CC(=O)O)C(=O)O", "note": "[citrate]", "values": [{"measurement": "sum of intracellular DNase activity, % of control sperm cells", "value": 43, "unit": "%"}]}]}
